Measurements taken from article PMC3240648, “Inhibition of Influenza A Virus (H1N1) Fusion by Benzenesulfonamide Derivatives Targeting Viral Hemagglutinin” (PLoS ONE, 2011).
“Also recorded” adds a separate entry of the source.

What was measured:
[1] = Repeated oral dosing of mice without virus challenge (survival, body weight); format: in vivo; conditions: 200 mg/kg and 50 mg/kg orally twice a day for 7 days, monitored 14 days
From the text: Survival of the treated animals and body weight were monitored for 14 days starting from the first day of compound dosing.

[2] = system: Influenza A/PR/8/34 (H1N1); assay: microbe, parasite or virus in culture; format: cell-based; conditions: MDCK, 72 h, read-out: CPE (EC50) A/PR/8/34 (H1N1)
[3] = system: Influenza A/Human/Hubei/3/2005 (H3N2); assay: microbe, parasite or virus in culture; format: cell-based, Influenza A virus; conditions: for EC50: Influenza A virus, H3N2, MDCK, 72 h, read-out: CPE (EC50) A/Human/Hubei/3/2005 (H3N2)
in vivo = conditions: male, CD-1, mouse
[4] = mouse, in vivo
[5] = system: Influenza A/Mal/302/54 (H1N1); assay: microbe, parasite or virus in culture; format: cell-based; conditions: H1N1, MDCK, 72 h, read-out: CPE (EC50) A/Mal/302/54 (H1N1)
influenza virus [6] = assay: microbe, parasite or virus in culture; format: cell-based; conditions: unidentified influenza virus, read-out: in vitro EC90
[7] = system: Influenza A/Hongkong/8/68 (H3N2); assay: microbe, parasite or virus in culture; format: cell-based, Influenza A virus; conditions: for EC50: Influenza A virus, H3N2, MDCK, 72 h, read-out: CPE (EC50) A/Hongkong/8/68 (H3N2)
[8] = system: Influenza A/New Jersey/8/76 (H1N1); assay: microbe, parasite or virus in culture; format: cell-based; conditions: H1N1, MDCK, 72 h, read-out: CPE (EC50) A/New Jersey/8/76 (H1N1)
[9] = biological target: Bromelain-cleaved HA (BHA) (Influenza A virus (H1N1), UniProt Q0HD60); format: biochemical
Sequence of Bromelain-cleaved HA (BHA) (Q0HD60 18-343, added parts left off): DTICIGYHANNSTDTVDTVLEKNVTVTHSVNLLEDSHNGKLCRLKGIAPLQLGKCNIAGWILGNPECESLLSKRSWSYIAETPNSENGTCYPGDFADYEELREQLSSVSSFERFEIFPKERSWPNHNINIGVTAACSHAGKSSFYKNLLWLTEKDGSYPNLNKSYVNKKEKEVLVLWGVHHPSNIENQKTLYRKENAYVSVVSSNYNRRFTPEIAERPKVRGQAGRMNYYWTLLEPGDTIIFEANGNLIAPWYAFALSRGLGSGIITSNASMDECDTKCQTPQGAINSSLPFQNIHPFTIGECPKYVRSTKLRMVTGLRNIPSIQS

[10] = system: Influenza A/Weiss/43 (H1N1); format: cell-based, Influenza A virus
[11] = system: viral hemagglutinin binding to sialic acid receptors of chicken erythrocytes; format: cell-based, influenza virus; conditions: 10 µM, regardless of viral dilution; data not shown
[12] = biological target: hemagglutinin of influenza virus (Influenza A virus (H1N1), UniProt Q0HD60); format: cell-based; conditions: for effect on hemolysis (negative controls): data not shown
Sequence of hemagglutinin of influenza virus (Q0HD60 18-343, added parts left off): as above

influenza virus [13] = format: cell-based; conditions: for reduction of virus yield: 3.16 µM, 48 hours, MDCK, TCID50
[14] = system: Influenza A/Weiss/43 (H1N1); format: cell-based, Influenza A virus; remark: listed apart in the source

SMILES | EC50 [2] | EC50 [3] | EC50 [5] | EC50 [7] | BHA trypsin sensitivity [9] | protection of BHA from trypsin digestion after acidification [9] | dynamics of progeny virus production (influenza virus [13]) | reduction of virus yield (influenza virus [13]) | effect on hemolysis (negative controls) [12] | further results
CC1(C)C[C@H](O)C[C@](C)(CNc2ccc(Cl)c(S(N)(=O)=O)c2)C1 [RO5487624] | 210 nM | > 100 µM | 450 nM | > 100 µM | + | completely protected HA from trypsin digestion |  |  |  | animal death and body weight changes [1]: did not find any animal death and statistically significant body weight changes; bioavailability (in vivo): > 70%; AUC(0-inf) (in vivo; iv, 2 mg/kg): 629 ng·h/mL; AUC(0-t) (in vivo; iv, 2 mg/kg): 587 ng·h/mL; C max and AUC in plasma versus oral dose [4]: increased in a dose-dependent manner; EC90 (influenza virus [6]): 300 nM; EC50 [8]: 90 nM
CC1(C)CC(O)CC(C)(CNc2cccc(S(N)(=O)=O)c2)C1 (stereo not shown) [RO5464466, 3-[(5-Hydroxy-1,3,3-trimethyl-cyclohexylmethyl)-amino]-benzenesulfonamide] | 580 nM | > 100 µM | 660 nM | > 100 µM | + | completely protected HA from trypsin digestion | strong inhibition at all time points | 8 log |  | plaque formation [10]: completely protected cell monolayer against cell death (no visible plaques); also recorded: still inhibited virus infection; inhibitory effect on replication of A/Human/Hubei/3/2005 (H3N2) in CPE assay [3]: failed to exhibit an apparent inhibitory effect; inhibitory effect on hemagglutination [11]: did not have an inhibitory effect on hemagglutination; HA-mediated hemolysis ([12]; 10 µM, pH 5.03, 5.05, 5.1 and 5.2): completely blocked; inhibitory effect on replication of A/Hongkong/8/68 (H3N2) in CPE assay [7]: failed to exhibit an apparent inhibitory effect; protection of BHA from trypsin-caused degradation at different pH [9]: effectively protected BHA from trypsin-caused degradation throughout the tested pH values, except pH 4.5; effect on virus replication in one cycle [14]: completely blocks virus replication
CCOC(=O)C1=C[C@@H](OC(CC)CC)[C@H](NC(C)=O)[C@@H](N)C1 [Oseltamivir] |  |  |  |  |  |  |  | 5 log | did not show any effect on hemolysis | 
NC(=O)c1ncn([C@@H]2O[C@H](CO)[C@@H](O)[C@H]2O)n1 [Ribavirin] |  |  |  |  |  | failed to show a protective effect on BHA | became weaker |  | did not show any effect on hemolysis | inhibition of progeny virus production (influenza virus [13]): strongly inhibited progeny virus production
